From ChEMBL document CHEMBL1201862, “PubChem BioAssay data set” (2004)
The source made the active and inactive calls.

What was measured:
[1] = test system: Vero; assay: Vero cell toxicity, dose response, cytotoxicity control, plate reader, cherry-pick samples (AID 687020); format: functional, cell-based; conditions: Chlorocebus sabaeus
[2] = A cytotoxicity screen of small molecule inhibitors of the PhoP region in Salmonella typhi identified in the primary screen. [Related pubchem assays: 1850, 1864, 1985 ]; format: functional
[3] = target: Arf-GAP with SH3 domain, ANK repeat and PH domain-containing protein 1 (Homo sapiens, UniProt Q9ULH1); format: functional;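 note: biochemical fluorescence polarization dose–response screen measuring inhibition of ASAP1; ASAP1 GAP domain stimulating GTP hydrolysis by truncated human ARF1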
[4] = target: T1, Apoptotic protease-activating factor 1 (Homo sapiens, UniProt O14727); format: functional
T1 sequence (O14727 whole entry): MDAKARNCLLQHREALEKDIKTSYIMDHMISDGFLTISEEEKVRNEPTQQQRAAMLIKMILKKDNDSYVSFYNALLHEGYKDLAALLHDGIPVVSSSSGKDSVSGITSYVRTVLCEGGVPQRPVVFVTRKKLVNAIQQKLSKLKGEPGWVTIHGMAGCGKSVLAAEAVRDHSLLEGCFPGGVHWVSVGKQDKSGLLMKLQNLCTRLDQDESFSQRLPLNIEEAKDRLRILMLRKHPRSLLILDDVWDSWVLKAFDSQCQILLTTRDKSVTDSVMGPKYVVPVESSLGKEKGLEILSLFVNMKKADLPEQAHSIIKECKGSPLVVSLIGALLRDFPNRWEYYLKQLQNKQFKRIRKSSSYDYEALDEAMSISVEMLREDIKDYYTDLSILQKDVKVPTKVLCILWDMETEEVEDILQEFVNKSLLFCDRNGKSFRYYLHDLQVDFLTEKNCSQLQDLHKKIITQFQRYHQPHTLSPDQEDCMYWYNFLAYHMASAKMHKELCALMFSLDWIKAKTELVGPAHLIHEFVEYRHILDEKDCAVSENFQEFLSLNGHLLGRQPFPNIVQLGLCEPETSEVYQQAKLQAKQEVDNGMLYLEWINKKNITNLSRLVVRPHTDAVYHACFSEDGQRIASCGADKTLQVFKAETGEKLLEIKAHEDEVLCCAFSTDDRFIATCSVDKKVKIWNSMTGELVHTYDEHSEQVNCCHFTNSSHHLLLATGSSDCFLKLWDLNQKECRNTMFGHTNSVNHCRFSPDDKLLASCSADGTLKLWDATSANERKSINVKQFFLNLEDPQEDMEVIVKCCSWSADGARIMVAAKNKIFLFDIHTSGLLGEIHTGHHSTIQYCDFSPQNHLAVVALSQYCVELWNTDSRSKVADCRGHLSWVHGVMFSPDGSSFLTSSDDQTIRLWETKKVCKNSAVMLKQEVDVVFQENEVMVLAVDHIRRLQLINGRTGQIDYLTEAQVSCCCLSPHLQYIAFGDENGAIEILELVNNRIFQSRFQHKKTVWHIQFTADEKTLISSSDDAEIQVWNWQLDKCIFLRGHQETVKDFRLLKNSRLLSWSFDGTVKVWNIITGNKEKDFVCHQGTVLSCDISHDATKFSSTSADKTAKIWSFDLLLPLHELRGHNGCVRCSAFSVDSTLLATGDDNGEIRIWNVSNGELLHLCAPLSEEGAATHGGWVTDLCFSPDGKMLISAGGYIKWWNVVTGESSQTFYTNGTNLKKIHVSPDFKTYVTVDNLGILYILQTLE

[5] = target: T2, Tyrosyl-DNA phosphodiesterase 2 (Homo sapiens, UniProt O95551); assay: human TDP2 enzyme inhibitors, dose response, biochemical, epi absorbance, IC50 (AID 743297)
T2 sequence (O95551 whole entry): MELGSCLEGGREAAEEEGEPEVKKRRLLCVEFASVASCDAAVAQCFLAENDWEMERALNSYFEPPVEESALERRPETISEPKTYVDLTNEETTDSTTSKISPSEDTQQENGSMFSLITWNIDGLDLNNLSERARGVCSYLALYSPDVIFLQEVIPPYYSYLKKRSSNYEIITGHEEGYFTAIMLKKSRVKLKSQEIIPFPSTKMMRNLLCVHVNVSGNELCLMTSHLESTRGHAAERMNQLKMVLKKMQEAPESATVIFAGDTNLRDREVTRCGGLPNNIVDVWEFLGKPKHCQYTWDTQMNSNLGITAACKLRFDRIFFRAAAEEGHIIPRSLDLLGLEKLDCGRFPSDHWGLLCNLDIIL

[6] = target: T3, Protein RecA (Mycobacterium tuberculosis, UniProt P9WHJ3); assay: Fluorescence Cell-Free Homogeneous Dose Retest to Identify Inhibitors of RecA-Intein Splicing Activity. [Related pubchem assays (depositor defined):AID2097, AID2223, AID489010, AID492950]; format: functional
T3 sequence (P9WHJ3 whole entry): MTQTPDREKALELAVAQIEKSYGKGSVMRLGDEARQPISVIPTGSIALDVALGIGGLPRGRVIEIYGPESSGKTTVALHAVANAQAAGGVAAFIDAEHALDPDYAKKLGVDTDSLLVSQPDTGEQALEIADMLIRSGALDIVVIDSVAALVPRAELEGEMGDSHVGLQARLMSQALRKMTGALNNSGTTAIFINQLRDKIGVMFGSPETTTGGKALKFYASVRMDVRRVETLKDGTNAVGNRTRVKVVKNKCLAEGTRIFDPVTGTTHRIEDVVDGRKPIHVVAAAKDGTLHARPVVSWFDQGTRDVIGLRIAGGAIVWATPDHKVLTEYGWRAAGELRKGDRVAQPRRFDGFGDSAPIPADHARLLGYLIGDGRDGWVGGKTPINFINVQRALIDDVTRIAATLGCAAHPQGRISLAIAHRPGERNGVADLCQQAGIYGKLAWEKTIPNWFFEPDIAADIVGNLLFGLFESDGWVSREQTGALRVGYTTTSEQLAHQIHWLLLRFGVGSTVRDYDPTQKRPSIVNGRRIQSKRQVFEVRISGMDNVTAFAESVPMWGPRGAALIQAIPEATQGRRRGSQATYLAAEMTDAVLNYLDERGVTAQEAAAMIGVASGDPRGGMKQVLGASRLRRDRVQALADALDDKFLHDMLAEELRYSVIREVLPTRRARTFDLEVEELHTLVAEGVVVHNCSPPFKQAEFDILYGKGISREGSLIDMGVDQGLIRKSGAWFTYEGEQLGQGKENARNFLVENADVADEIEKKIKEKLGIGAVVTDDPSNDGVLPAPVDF

[7] = target: T4, Replicative DNA helicase DnaB (Mycobacterium tuberculosis, UniProt P9WMR3); assay: DnaB intein splicing inhibitors, dose response, biochemical, cell-free fluorescence (AID 449749); format: functional
T4 sequence (P9WMR3 whole entry): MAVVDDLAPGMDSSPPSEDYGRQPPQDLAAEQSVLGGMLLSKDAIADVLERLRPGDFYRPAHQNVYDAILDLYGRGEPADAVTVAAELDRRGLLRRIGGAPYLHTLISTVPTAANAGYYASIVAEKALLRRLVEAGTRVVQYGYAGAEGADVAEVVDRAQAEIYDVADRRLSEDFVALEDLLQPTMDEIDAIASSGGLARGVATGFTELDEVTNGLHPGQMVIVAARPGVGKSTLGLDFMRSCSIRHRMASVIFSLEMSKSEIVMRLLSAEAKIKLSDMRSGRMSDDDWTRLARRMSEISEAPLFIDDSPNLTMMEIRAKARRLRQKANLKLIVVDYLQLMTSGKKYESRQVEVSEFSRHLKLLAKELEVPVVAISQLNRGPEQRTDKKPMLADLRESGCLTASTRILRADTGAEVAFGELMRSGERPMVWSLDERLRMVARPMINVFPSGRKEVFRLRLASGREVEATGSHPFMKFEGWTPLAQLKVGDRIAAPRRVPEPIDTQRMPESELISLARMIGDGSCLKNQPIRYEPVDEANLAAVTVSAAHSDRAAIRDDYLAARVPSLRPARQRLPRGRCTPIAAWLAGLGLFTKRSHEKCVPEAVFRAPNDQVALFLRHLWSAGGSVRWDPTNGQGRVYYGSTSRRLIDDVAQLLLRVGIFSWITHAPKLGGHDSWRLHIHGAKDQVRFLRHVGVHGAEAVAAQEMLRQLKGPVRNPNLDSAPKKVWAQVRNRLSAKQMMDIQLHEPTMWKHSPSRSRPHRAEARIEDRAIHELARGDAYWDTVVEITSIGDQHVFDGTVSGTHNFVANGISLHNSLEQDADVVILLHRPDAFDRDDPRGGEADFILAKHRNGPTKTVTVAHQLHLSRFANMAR

[8] = ZM109 Env clade C HIV-1 fusion inhibitors, dose response, HeLa effector, CEM target cells, luciferase, cherry-pick (AID 652058); format: functional, cell-based
[9] = target: 5-hydroxytryptamine receptor 2A (Mus musculus, UniProt P35363); format: functional, cell-based;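 note: CHO-K1 cells with tagged receptor and beta-arrestin; agonist potency measured as compound-induced activation of the receptor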
[10] = test system: Escherichia coli; assay: microbe, parasite or virus in culture
[11] = CEM21 lymphoblast cell cytotoxicity, dose response, cytotoxicity control for viral fusion inhibitor project, CellTiter-Glo luminescence, cherry-picked (AID 652042); format: functional, cell-based;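 note: potency for signal decrease meaning cytotoxicity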
[12] = off-target signal loss in HeLa-CEM21 co-culture – HeLa F-luc CTL cells, cherry-picked, counter-screen for HIV-1 Env fusion inhibitor project, dose response (AID 652040); format: functional, cell-based;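 note: potency for signal decrease marking cytotoxic or nonspecific inhibition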
[13] = test system: Escherichia coli; assay: microbe, parasite or virus in culture; remark: listed apart in the source
[14] = inhibitors of clade B AD8 Env fusion, dose response, cell-based, cherry-pick (AID 652062); format: functional;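 note: luciferase signal from cell-cell fusion driven by HIV-1 clade B AD8 Env; potency is for inhibitors of fusion seen as a drop in luminescence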
[15] = inhibitors of HIV Env-driven cell fusion, dose response, cherry-pick (AID 652057); format: functional, cell-based
[16] = microbe, parasite or virus in culture; format: functional; conditions: Mycobacterium tuberculosis
[17] = target: Mu-type opioid receptor (Homo sapiens, UniProt P35372); format: functional, cell-based;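 note: U2OS cells with beta-arrestin recruitment to OPRM1 by beta-gal complementation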
[18] = Counterscreen for […] of the human trace amine associated receptor 1 (TAAR1): Fluorescence-based cell-based high throughput dose response assay to identify nonselective Ga16 agonists.; format: functional
[19] = Luminescence Cell-Based Dose Retest to Confirm Inhibitors of Cancer Stem Cells. [Related pubchem assays (depositor defined):AID2717, AID2721]; format: functional; conditions: Homo sapiens
[20] = non-specific cell cytotoxicity, dose response, cytotoxicity control for PAX8 inhibitor project, plate reader, dry powder samples (AID 743021); format: functional, cell-based
[21] = Counterscreen for antagonists of the human trace amine associated receptor 1 (hTAAR1): Fluorescence-based cell-based high throughput dose response assay to identify nonselective Ga16 antagonists.; format: functional
[22] = target: Paired box protein Pax-8 (Homo sapiens, UniProt Q06710); assay: inhibitors of PAX8-driven TPO luciferase reporter, dose response, RMG-I cells, cherry-pick (AID 687027); format: functional, cell-based;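 note: luciferase reporter driven by Pax8 target thyroperoxidase promoter measured by SteadyGlo luminescence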
[23] = target: T5, Caspase-3 (Homo sapiens, UniProt P42574); assay: Dose-response confirmation of uHTS inhibitor hits of Sentrin-Specific Protease 8 in a Caspase-3 Fluorescence assay.; format: functional
T5 sequence (P42574 whole entry): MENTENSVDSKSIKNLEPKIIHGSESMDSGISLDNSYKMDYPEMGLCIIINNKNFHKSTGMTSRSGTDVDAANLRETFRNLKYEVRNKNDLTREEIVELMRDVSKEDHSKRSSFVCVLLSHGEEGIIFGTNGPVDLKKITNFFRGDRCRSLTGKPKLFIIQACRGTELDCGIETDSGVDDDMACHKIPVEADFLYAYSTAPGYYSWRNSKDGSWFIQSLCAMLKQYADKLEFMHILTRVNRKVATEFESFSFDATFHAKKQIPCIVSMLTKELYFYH

[24] = target: T6, Sentrin-specific protease 8 (Homo sapiens, UniProt Q96LD8); format: functional
T6 sequence (Q96LD8 whole entry): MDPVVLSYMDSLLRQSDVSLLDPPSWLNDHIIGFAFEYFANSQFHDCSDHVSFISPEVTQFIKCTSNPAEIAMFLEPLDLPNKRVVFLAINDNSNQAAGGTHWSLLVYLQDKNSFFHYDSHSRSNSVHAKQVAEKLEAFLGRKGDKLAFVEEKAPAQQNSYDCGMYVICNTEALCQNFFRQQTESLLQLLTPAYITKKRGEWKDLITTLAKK

[25] = target: T6, Sentrin-specific protease 8; format: functional; remark: listed apart in the source
[26] = target: T7, Beta-lactamase (Pseudomonas aeruginosa, UniProt Q79MP6); assay: […] counterscreen for selective VIM-2 inhibitors: dose response biochemical high throughput screening assay to identify inhibitors of IMP-1 metallo-beta-lactamase.
[27] = target: Beta-lactamase (Salmonella choleraesuis (strain SC-B67), UniProt Q5J463); assay: Epi-absorbance-based counterscreen for selective VIM-2 inhibitors: dose response biochemical high throughput screening assay to identify inhibitors of TEM-1 serine-beta-lactamase.
[28] = target: T7, Beta-lactamase; assay: IMP-1 metallo-beta-lactamase inhibitors, dose response, selectivity assay for VIM-2 inhibitor project, biochemical, epi-absorbance (AID 1920)
[29] = target: Fructose-bisphosphate aldolase (Mycobacterium tuberculosis, UniProt P9WQA3); assay: Fluorescence-based biochemical high throughput dose response assay for inhibitors of the fructose-bisphosphate aldolase (FBA) of M. tuberculosis.; format: functional
Sequence of Fructose-bisphosphate aldolase (P9WQA3 whole entry): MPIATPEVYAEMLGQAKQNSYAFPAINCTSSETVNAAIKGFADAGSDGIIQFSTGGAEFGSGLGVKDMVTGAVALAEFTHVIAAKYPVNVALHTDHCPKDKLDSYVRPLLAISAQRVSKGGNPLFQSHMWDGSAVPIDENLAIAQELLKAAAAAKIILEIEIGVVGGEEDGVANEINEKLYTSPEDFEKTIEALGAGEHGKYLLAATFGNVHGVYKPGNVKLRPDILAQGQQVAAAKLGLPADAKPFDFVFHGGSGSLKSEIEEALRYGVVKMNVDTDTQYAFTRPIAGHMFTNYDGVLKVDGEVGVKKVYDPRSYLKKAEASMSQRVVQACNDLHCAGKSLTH

T7 sequence (Q79MP6 whole entry): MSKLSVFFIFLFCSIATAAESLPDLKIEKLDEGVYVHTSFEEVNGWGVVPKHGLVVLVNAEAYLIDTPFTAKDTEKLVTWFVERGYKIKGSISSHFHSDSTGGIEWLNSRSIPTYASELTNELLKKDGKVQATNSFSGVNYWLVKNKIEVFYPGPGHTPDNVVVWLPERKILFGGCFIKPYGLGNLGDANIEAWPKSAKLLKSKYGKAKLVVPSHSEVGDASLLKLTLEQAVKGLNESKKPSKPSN
Sequence of Mu-type opioid receptor (P35372 whole entry): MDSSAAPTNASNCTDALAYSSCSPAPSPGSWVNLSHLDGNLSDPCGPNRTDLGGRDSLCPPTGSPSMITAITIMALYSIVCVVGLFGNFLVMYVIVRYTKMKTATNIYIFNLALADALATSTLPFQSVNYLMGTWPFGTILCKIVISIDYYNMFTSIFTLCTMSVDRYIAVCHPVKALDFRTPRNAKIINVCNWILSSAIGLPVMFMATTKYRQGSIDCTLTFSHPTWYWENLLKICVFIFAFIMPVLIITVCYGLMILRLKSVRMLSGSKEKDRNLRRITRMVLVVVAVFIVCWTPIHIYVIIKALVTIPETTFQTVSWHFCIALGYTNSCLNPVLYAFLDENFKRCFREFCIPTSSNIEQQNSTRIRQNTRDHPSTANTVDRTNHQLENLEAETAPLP
Sequence of 5-hydroxytryptamine receptor 2A (P35363 whole entry): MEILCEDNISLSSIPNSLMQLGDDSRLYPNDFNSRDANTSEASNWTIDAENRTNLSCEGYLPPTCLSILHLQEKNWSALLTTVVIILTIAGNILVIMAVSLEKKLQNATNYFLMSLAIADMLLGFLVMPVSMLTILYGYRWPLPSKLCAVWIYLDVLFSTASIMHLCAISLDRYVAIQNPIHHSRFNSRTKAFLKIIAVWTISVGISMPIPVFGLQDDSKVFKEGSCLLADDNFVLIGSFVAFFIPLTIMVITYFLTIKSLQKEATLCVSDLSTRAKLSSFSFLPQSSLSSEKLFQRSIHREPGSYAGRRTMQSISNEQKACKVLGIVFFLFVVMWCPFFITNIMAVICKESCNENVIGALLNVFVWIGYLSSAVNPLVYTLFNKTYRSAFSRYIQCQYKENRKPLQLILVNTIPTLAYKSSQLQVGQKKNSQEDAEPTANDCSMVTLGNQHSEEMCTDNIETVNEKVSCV
Sequence of Paired box protein Pax-8 (Q06710 whole entry): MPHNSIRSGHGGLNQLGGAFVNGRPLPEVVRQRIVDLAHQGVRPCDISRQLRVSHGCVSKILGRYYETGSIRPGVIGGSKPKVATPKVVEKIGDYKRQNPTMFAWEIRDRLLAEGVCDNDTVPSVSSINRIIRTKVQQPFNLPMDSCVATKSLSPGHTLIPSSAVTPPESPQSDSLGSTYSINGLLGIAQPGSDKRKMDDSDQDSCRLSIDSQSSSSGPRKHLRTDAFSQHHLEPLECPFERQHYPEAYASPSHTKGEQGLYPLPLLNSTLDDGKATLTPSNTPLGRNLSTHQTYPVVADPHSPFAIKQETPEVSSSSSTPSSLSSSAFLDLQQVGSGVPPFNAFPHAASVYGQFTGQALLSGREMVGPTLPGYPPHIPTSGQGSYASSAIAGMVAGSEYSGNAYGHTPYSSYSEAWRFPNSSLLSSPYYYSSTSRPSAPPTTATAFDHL
Sequence of Arf-GAP with SH3 domain, ANK repeat and PH domain-containing protein 1 (Q9ULH1 whole entry, the tested form may be a part): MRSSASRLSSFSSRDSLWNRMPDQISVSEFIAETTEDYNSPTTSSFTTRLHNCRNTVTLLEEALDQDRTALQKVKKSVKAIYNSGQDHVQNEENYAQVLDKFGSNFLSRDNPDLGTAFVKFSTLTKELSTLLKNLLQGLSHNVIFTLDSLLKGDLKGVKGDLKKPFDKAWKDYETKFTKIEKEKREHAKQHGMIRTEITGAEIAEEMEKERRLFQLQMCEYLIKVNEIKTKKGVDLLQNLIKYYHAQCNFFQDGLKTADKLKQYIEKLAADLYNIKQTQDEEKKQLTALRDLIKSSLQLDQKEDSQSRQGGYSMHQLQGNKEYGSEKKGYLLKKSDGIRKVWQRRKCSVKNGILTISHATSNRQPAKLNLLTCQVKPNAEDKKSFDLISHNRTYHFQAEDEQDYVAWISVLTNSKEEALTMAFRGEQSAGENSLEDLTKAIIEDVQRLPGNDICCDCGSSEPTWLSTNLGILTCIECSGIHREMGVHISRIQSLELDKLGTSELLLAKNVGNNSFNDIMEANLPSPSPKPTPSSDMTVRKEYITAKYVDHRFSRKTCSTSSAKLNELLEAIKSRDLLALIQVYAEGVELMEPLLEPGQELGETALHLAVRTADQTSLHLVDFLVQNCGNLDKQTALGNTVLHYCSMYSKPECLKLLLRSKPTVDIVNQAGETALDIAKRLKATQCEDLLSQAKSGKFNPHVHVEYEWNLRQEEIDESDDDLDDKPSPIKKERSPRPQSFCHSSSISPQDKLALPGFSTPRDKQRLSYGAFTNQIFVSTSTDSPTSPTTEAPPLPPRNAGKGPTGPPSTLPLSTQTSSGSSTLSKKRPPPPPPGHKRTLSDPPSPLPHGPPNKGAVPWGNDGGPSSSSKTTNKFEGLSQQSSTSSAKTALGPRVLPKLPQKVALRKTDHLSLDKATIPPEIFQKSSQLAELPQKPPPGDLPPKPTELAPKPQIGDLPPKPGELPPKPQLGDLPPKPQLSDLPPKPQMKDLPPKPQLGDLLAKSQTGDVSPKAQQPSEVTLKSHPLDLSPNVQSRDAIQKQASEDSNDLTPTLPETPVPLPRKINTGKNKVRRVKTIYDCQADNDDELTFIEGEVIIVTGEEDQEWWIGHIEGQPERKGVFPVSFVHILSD
Sequence of Beta-lactamase (Salmonella choleraesuis (strain SC-B67), UniProt Q5J463) (Q5J463 whole entry): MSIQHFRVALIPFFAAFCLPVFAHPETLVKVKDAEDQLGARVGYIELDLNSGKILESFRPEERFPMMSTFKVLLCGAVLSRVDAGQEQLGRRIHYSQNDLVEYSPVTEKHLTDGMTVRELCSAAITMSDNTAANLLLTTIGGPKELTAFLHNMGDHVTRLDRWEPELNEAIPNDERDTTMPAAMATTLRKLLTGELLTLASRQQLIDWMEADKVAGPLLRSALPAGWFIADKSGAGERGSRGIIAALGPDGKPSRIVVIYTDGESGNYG

## O=C(Nc1ccc(Cc2ccncc2)cc1)c1cccs1
[1]
  AC50: 26.3 µM (active)
[2]
  EC50: > 50 µM (active)

## CC(=O)c1cccc(-c2ccc3c(=O)[nH]c(Nc4ccccc4)cc3c2)c1
[3]
  IC50: 165 µM (inactive)
[4]
  IC50: 3.02 µM (active)
[5]
  IC50: 25.9 µM (inactive)
[6]
  EC50: 2.14 µM (active)
[7]
  AC50: > 380 µM (inactive)

## CN(C)c1ccc(O)c2c1CC1CC3[C@@H](N(C)C)C(=O)C(C(N)=O)C(=O)[C@]3(O)C(=O)C1C2=O (some centres undefined)
[8]
  AC50: < 0.26 µM (active)
[9]
  EC50: 0.659 µM (active)
[10]
  AC50: 1.35 µM (active)
[11]
  AC50: 61.2 µM (active)
[12]
  AC50: < 0.26 µM (active)
[13]
  AC50: 11.8 µM (active)
[14]
  AC50: < 0.26 µM (active)
[15]
  AC50: < 0.26 µM (active)
[16]
  CC50: 29 µM (active)
[17]
  EC50: 92.5 µM (inactive)

## Cc1cc(Br)c(OCc2ccc(C(=O)N/N=C/c3ccc[nH]3)cc2)c(Br)c1
[18]
  EC50: > 29.9 µM (inactive)
[19]
  AC50: 0.228 µM (active)
[20]
  AC50: 59.4 µM (active)
[21]
  IC50: > 29.9 µM (inactive)
[22]
  AC50: 0.693 µM (active)

## Cc1ccc(S(=O)(=O)N2CCOCC2)cc1C(=O)OCC(=O)N1CCc2ccccc2C1
[23]
  IC50: 92.7 µM (inactive)
[24]
  IC50: 24.4 µM (active)
[25]
  IC50: 62.2 µM (inactive)

## Cc1c(C)c2c(OCC(=O)N[C@@H](C)C(=O)O)cc3c(c2oc1=O)CCC(C)(C)O3
[26]
  IC50: > 59.6 µM (inactive)
[27]
  IC50: > 59.6 µM (inactive)
[28]
  IC50: > 59.6 µM (inactive)

## C=CCn1c(-c2ccc(N)cc2)nc2ccccc21
[29]
  IC50: > 0.37 µM (active)
